Measurements taken from publication PMC8725837, “2-Arylquinolines as novel anticancer agents with dual EGFR/FAK kinase inhibitory activity: synthesis, biological evaluation, and molecular modelling insights” (Journal of Enzyme Inhibition and Medicinal Chemistry, 2021).

Assays:
VEGFR-2 = target: T1, VEGFR-2 (Homo sapiens, UniProt P35968); assay: Z`-LYTE kinase profiling, VEGFR-2; type: biochemical
T1 construct: purchased Invitrogen/Life Technologies

[1] = test system: MCF-7 breast cancer cell line; assay: MTT antiproliferative assay, MCF-7; type: cell-based; settings: 10 µM, 24 h
Description: (§1) At least, three independent experiments were performed.

[2] = test system: HeLa cervical cancer cell line; assay: MTT antiproliferative assay, HeLa; type: cell-based; settings: 10 µM, 24 h
Description: as §1

EGFR = EGFR (Homo sapiens, UniProt P00533); assay: Z`-LYTE kinase inhibitory assay, EGFR
VEGFR-1 = target: T2, VEGFR-1 (Homo sapiens, UniProt P17948); assay: Z`-LYTE kinase profiling, VEGFR-1; type: biochemical
T2 construct: purchased Invitrogen/Life Technologies

recombinant human TOP1 = target: T3, recombinant human TOP1 (Homo sapiens, UniProt P11387); assay: Topoisomerase I-mediated DNA cleavage assay; settings: tested at 0.1, 1, 10, 100 µM
T3 sequence (P11387 1-765): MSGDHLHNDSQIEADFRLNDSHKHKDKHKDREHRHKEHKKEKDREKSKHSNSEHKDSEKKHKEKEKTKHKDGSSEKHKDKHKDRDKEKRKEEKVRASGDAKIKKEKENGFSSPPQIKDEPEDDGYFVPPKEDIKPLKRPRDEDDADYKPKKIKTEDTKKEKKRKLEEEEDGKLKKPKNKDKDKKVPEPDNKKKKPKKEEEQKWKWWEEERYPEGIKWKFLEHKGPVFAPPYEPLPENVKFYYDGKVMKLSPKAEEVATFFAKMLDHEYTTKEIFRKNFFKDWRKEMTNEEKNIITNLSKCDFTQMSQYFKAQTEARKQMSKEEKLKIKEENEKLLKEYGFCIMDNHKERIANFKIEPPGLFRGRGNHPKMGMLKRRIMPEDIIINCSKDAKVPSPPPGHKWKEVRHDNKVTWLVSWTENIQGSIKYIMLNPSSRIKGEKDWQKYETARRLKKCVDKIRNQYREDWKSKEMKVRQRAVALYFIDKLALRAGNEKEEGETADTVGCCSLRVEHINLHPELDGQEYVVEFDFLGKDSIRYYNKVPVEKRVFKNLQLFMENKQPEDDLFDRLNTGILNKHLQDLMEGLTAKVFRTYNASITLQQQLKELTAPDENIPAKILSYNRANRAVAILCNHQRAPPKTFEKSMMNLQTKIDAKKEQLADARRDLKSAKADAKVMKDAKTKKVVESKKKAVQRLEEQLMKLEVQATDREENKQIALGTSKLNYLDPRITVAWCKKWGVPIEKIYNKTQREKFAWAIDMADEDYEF

[3] = test system: HCT-116 colorectal cancer cell line; assay: MTT antiproliferative assay, HCT-116; settings: for GI% HCT-116: 10 µM, 24 h, MTT; for IC50: Homo sapiens, HCT-116, 24 h, read-out: IC50 HCT-116 (half maximal growth inhibitory concentration)
Description: After the incubation of the tested compounds for 24 h, the percent growth inhibition (GI%) was calculated.
Cells were seeded at 1 × 10^4 cells/well and cultured overnight in a 96-well plate. […] Then, 150 µl DMSO was used to solubilise MTT formazan crystals. Finally, the plates were shaken, and the optical density was determined at 570 nm using ELISA plate reader. At least, three independent experiments were performed. Percentage of growth inhibition was determined as (1-[OD of treated cells/OD of control cells]). […] The IC50 values were calculated using Prism v0.8 software (GraphPad Software Inc., La Jolla, CA).

FAK = FAK (Homo sapiens, UniProt Q05397); assay: Z`-LYTE kinase inhibitory assay, FAK
FRK = target: T4, FRK (Homo sapiens, UniProt P42685); assay: Z`-LYTE kinase profiling, FRK; type: biochemical
T4 construct: purchased Invitrogen/Life Technologies

[4] = test system: MDMBA-231 breast cancer cell line; assay: MTT antiproliferative assay, MDMBA-231; type: cell-based; settings: 10 µM, 24 h
Description: as §1

[5] = test system: DLD-1 colorectal cancer cell line; assay: Annexin V-FITC/propidium iodide apoptosis assay (AV/PI); type: cell-based; settings: 3 µM, 24 h; control 7%
Description: Also, compounds 6f, 6i, 16d, and 20f exerted potential apoptotic effect elevating the total percentage of apoptotic cells to 84.33, 71.66, 51.66, and 80.66%, respectively.
Flow cytometric analysis was conducted using FACS Calibur flow cytometer (BD Biosciences, San Jose, CA, USA).

[6] = test system: DLD-1 colorectal cancer cell line; assay: MTT antiproliferative assay, DLD-1; settings: for GI% DLD1: 10 µM, 24 h, MTT; for IC50: Homo sapiens, DLD-1, 24 h, read-out: IC50 DLD1 (half maximal growth inhibitory concentration); for fold superior activity compared to Gefitinib, DLD-1: from IC50 values
c-Src = target: T5, c-Src (Homo sapiens, UniProt P12931); assay: Z`-LYTE kinase profiling, c-Src; type: biochemical
T5 construct: purchased Invitrogen/Life Technologies

IGF-1R = target: T6, IGF-1R (Homo sapiens, UniProt P08069); assay: Z`-LYTE kinase profiling, IGF-1R; type: biochemical
T6 construct: purchased Invitrogen/Life Technologies

BTK = target: T7, BTK (Homo sapiens, UniProt Q06187); assay: Z`-LYTE kinase profiling, BTK; type: biochemical
T7 construct: purchased Invitrogen/Life Technologies

HER-2 = target: T8, HER-2 (Homo sapiens, UniProt P04626); assay: Z`-LYTE kinase profiling, HER-2; type: biochemical
T8 construct: purchased Invitrogen/Life Technologies

Chain of FAK (Q05397 whole entry): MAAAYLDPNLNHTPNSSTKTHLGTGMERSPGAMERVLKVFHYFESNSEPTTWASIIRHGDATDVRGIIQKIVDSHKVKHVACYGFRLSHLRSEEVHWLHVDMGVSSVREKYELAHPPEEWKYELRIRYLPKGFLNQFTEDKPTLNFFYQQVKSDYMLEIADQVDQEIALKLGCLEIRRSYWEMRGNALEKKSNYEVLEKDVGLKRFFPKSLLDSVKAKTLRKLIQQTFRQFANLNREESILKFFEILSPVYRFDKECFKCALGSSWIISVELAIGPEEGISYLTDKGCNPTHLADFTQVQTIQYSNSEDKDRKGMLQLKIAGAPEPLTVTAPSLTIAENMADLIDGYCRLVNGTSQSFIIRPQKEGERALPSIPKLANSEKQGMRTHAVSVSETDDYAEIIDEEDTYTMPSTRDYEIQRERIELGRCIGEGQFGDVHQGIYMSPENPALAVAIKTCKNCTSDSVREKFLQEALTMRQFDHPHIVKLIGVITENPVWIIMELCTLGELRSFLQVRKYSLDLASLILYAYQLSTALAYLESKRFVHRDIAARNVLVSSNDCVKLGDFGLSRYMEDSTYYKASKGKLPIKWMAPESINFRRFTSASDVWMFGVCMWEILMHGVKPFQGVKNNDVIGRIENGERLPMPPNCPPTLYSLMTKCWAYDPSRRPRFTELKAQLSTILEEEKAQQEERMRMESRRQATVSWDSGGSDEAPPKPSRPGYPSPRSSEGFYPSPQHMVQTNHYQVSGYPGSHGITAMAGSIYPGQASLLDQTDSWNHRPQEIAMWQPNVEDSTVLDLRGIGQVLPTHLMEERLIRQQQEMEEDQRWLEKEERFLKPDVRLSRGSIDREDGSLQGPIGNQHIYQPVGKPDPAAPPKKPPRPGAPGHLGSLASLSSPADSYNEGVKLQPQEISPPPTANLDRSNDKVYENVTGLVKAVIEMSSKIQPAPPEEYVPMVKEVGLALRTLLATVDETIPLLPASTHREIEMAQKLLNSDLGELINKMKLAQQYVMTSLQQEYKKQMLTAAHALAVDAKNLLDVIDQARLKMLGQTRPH
T5 sequence (P12931 whole entry): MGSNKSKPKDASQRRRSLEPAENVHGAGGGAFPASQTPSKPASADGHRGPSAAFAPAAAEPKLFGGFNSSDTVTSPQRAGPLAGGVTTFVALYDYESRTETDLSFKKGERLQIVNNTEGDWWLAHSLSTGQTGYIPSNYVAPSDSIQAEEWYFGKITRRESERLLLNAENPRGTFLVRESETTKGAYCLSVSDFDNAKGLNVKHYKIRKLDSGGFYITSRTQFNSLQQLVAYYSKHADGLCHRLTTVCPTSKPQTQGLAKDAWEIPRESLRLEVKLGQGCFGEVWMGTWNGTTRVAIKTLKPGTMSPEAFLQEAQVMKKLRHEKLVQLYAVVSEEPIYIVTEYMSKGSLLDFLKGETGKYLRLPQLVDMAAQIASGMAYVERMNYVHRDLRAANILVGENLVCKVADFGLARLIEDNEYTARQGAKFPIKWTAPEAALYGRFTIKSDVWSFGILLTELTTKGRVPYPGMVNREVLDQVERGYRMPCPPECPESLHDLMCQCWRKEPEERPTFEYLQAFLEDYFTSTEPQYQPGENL
Chain of EGFR (P00533 25-1210): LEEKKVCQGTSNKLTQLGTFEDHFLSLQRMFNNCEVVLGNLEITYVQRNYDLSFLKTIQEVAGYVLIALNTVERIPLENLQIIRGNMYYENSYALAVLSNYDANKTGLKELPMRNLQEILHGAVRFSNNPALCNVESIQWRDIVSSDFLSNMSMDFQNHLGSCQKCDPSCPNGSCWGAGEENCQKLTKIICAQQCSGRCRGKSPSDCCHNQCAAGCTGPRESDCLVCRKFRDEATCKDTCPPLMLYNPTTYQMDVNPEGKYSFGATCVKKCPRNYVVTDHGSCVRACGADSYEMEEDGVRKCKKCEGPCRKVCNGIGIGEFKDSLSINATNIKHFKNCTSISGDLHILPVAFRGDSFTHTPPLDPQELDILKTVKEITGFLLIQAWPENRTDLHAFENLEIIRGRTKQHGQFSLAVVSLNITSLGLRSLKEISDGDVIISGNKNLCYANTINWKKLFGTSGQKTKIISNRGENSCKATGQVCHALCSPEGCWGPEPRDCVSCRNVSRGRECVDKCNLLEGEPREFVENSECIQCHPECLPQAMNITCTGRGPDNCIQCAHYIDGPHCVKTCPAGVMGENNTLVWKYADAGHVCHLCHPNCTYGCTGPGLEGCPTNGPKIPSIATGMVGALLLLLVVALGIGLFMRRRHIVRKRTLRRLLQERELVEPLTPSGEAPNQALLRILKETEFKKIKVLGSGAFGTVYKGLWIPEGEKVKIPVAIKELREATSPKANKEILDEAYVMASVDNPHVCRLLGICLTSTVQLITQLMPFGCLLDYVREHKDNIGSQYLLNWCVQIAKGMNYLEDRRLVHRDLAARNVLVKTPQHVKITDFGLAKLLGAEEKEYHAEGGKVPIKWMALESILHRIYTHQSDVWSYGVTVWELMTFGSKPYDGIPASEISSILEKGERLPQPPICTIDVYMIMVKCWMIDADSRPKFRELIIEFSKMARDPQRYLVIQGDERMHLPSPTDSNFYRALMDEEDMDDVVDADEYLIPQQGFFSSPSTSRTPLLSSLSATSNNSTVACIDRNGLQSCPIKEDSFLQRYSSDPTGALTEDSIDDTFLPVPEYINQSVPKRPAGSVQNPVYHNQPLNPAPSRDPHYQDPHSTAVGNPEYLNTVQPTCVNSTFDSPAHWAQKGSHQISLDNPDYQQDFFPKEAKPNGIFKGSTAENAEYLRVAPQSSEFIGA
T2 sequence (P17948 27-1338): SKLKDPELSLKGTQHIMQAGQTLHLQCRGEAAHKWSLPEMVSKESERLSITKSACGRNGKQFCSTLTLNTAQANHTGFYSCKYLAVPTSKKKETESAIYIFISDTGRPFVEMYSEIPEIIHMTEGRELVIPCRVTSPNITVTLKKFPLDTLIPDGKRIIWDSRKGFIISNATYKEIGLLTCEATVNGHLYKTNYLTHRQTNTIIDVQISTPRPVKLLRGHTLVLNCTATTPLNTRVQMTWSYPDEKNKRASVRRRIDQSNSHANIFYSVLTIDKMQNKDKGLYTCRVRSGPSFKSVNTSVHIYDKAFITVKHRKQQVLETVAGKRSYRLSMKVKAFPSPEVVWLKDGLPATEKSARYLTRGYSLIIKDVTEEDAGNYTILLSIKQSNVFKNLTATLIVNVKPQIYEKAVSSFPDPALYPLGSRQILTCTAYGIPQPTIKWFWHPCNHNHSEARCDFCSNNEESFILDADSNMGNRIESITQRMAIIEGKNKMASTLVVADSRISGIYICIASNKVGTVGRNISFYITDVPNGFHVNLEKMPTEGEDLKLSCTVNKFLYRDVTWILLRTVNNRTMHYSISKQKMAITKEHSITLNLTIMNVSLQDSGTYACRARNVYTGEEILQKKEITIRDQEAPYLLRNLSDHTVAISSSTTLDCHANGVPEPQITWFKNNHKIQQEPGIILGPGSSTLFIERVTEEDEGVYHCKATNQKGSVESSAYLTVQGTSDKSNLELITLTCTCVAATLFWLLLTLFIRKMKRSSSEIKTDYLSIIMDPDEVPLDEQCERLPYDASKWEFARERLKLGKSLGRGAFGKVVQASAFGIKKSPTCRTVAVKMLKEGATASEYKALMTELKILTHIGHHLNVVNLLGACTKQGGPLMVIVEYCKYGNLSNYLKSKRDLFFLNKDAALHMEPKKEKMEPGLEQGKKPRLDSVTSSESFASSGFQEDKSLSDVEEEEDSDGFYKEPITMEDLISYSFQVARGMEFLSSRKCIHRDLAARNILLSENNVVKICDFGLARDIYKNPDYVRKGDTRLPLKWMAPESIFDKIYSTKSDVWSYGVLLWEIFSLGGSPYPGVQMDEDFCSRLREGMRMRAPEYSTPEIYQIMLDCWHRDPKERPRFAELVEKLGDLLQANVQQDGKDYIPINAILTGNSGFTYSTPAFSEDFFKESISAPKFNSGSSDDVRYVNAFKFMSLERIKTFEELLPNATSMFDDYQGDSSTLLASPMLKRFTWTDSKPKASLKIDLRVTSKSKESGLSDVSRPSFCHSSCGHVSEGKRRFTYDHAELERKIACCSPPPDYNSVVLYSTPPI
T7 sequence (Q06187 whole entry): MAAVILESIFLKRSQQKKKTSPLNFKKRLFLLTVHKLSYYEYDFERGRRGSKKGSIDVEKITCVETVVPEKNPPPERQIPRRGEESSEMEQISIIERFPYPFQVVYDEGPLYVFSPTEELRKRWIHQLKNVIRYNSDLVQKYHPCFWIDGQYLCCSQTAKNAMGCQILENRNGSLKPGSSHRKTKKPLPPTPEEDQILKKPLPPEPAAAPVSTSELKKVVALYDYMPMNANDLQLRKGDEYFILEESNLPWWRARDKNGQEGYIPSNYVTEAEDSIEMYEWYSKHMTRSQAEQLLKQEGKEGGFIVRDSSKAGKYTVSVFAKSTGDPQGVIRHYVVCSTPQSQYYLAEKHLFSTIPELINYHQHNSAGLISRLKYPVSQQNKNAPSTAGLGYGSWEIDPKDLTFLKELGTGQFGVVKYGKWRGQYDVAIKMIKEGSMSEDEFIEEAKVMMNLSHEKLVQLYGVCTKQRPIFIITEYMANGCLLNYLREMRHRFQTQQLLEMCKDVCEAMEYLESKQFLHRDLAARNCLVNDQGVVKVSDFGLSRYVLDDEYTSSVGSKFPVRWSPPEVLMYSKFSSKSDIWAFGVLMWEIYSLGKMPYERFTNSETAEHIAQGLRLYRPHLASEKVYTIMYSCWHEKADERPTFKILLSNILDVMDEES

## COc1cc2nc(-c3ccc(C(F)(F)F)cc3)cc(OCCCN3CCN(C)CC3)c2cc1OC [6f, 6,7-dimethoxy-4–(3-(4-methylpiperazin-1-yl)propoxy)-2–(4-(trifluoromethyl)phenyl)quin-oline]
VEGFR-2
  IC50: 1940 nM
[1]
  GI% MCF-7: 94.36%
[2]
  GI% Hela: 69.17%
EGFR
  IC50: 25.4 ± 3.49 nM
VEGFR-1
  IC50: 1730 nM
Recombinant human TOP1
  TOP1 inhibitory activity (semiquantitative score relative to 1 µM CPT): 0
[3]
  GI% HCT-116: 88.46%
  IC50: 3090 ± 1050 nM
FAK
  IC50: 22.7 ± 2.38 nM
FRK
  IC50: 5050 nM
[4]
  GI% MDMBA-231: 75.34%
[5]
  total percentage of AV positive apoptotic DLD-1 cells: 84.33%
[6]
  GI% DLD1: 95.36%
  IC50: 2250 ± 960 nM
  fold superior activity compared to Gefitinib, DLD-1: 4 fold
c-Src
  IC50: 3940 nM
IGF-1R
  IC50: 5350 nM
BTK
  IC50: 8790 nM
HER-2
  IC50: 639 nM

## COc1cc2nc(-c3ccc(C(F)(F)F)cc3)cc(OCCCNC3CCN(C)CC3)c2cc1OC [6h, N-(3-((6,7-dimethoxy-2–(4-(trifluoromethyl)phenyl)quinolin-4-yl)oxy)propyl)-1-methyl p-iperidin-4-amine]
VEGFR-2
  IC50: 2450 nM
[1]
  GI% MCF-7: 90.36%
[2]
  GI% Hela: 90.78%
EGFR
  IC50: 20.2 ± 1.07 nM
VEGFR-1
  IC50: 464 nM
Recombinant human TOP1
  TOP1 inhibitory activity (semiquantitative score relative to 1 µM CPT): −/+ (−/+: 0–25% 1 µM CPT)
[3]
  GI% HCT-116: 89.34%
  IC50: 3280 ± 670 nM
FAK
  IC50: 14.2 ± 2.72 nM
FRK
  IC50: 330 nM
[4]
  GI% MDMBA-231: 84.76%
[5]
  total percentage of AV positive apoptotic DLD-1 cells: 90.33%
[6]
  GI% DLD1: 92.36%
  IC50: 1790 ± 210 nM
  fold superior activity compared to Gefitinib, DLD-1: 5 fold
c-Src
  IC50: 3580 nM
IGF-1R
  IC50: 197 nM
BTK
  IC50: 3480 nM
HER-2
  IC50: 1580 nM

## COc1cc2nc(-c3ccc(C(F)(F)F)cc3)cc(OCCCNCC3CCCO3)c2cc1OC (stereo not shown) [6i, 3-((6,7-dimethoxy-2–(4-(trifluoromethyl)phenyl)quinolin-4-yl)oxy)-N-((tetrahydrofuran-2-yl)methyl)propan-1-amine]
VEGFR-2
  IC50: 8240 nM
[1]
  GI% MCF-7: 89.49%
[2]
  GI% Hela: 78.64%
EGFR
  IC50: 22.4 ± 2.05 nM
VEGFR-1
  IC50: 801 nM
Recombinant human TOP1
  TOP1 inhibitory activity (semiquantitative score relative to 1 µM CPT): 0
[3]
  GI% HCT-116: 82.11%
  IC50: 5680 ± 1420 nM
FAK
  IC50: 18.4 ± 3.17 nM
FRK
  IC50: 1210 nM
[4]
  GI% MDMBA-231: 81.60%
[5]
  total percentage of AV positive apoptotic DLD-1 cells: 71.66%
[6]
  GI% DLD1: 88.76%
  IC50: 2480 ± 860 nM
  fold superior activity compared to Gefitinib, DLD-1: 4 fold
c-Src
  IC50: 7010 nM
IGF-1R
  IC50: 1710 nM
BTK
  IC50: 7290 nM
HER-2
  IC50: 1380 nM

## COc1ccc(-c2ccc3nc(-c4ccc(F)cc4)cc(OCCCn4ccnc4)c3c2)cc1 [20c, 4-(3-(1H-imidazol-1-yl)propoxy)-2-(4-fluorophenyl)-6-(4-methoxyphenyl)quinoline]
VEGFR-2
  IC50: 8970 nM
[1]
  GI% MCF-7: 76.82%
[2]
  GI% Hela: 22.08%
EGFR
  IC50: 362 ± 5.26 nM
VEGFR-1
  IC50: 1750 nM
Recombinant human TOP1
  TOP1 inhibitory activity (semiquantitative score relative to 1 µM CPT): 0
[3]
  GI% HCT-116: 38.64%
  IC50: 12500 ± 3050 nM
FAK
  IC50: 91 ± 5.85 nM
other
  melting point: 176 to 178 °C
FRK
  IC50: 1440 nM
[4]
  GI% MDMBA-231: 32.11%
[6]
  GI% DLD1: 41.34%
  IC50: 16000 ± 1100 nM
c-Src
  IC50: 9050 nM
IGF-1R
  IC50: 1880 nM
BTK
  IC50: 8670 nM
HER-2
  IC50: 1230 nM

## COc1ccc(-c2ccc3nc(-c4ccc(F)cc4)cc(OCCCN4CCOCC4)c3c2)cc1 [20d, 4-(3-((2-(4-fluorophenyl)-6-(4-methoxyphenyl)quinolin-4-yl)oxy)propyl)morpholine]
VEGFR-2
  IC50: 294 nM
[1]
  GI% MCF-7: 15.34%
[2]
  GI% Hela: 11.97%
EGFR
  IC50: 147 ± 8.37 nM
VEGFR-1
  IC50: 712 nM
Recombinant human TOP1
  TOP1 inhibitory activity (semiquantitative score relative to 1 µM CPT): 0
[3]
  GI% HCT-116: 36.91%
  IC50: 29500 ± 4150 nM
FAK
  IC50: 125 ± 3.15 nM
other
  melting point: 168 to 170 °C
FRK
  IC50: 133 nM
[4]
  GI% MDMBA-231: 27.05%
[6]
  GI% DLD1: 24.65%
  IC50: 65300 ± 5360 nM
c-Src
  IC50: 251 nM
IGF-1R
  IC50: 41.2 nM
BTK
  IC50: 1780 nM
HER-2
  IC50: 1770 nM

## Clc1ccc(-c2cc(OCCCn3ccnc3)c3cc(-c4ccco4)ccc3n2)cc1 [20e, 4-(3-(1H-imidazol-1-yl)propoxy)-2-(4-chlorophenyl)-6-(furan-2-yl)quinoline]
VEGFR-2
  IC50: 243 nM
[1]
  GI% MCF-7: 73.61%
[2]
  GI% Hela: 65.73%
EGFR
  IC50: 33.7 ± 1.02 nM
VEGFR-1
  IC50: 720 nM
Recombinant human TOP1
  TOP1 inhibitory activity (semiquantitative score relative to 1 µM CPT): 0
[3]
  GI% HCT-116: 89.64%
  IC50: 4750 ± 1020 nM
FAK
  IC50: 25.4 ± 3.48 nM
other
  melting point: 130 to 132 °C
FRK
  IC50: 216 nM
[4]
  GI% MDMBA-231: 56.29%
[6]
  GI% DLD1: 90.65%
  IC50: 4460 ± 650 nM
c-Src
  IC50: 138 nM
IGF-1R
  IC50: 3010 nM
BTK
  IC50: 271 nM
HER-2
  IC50: 98.8 nM

## Clc1ccc(-c2cc(OCCCN3CCOCC3)c3cc(-c4ccco4)ccc3n2)cc1 [20f, 4-(3-((2-(4-chlorophenyl)-6-(furan-2-yl)quinolin-4-yl)oxy)propyl)morpholine]
VEGFR-2
  IC50: 89.3 nM
[1]
  GI% MCF-7: 87.36%
[2]
  GI% Hela: 79.64%
EGFR
  IC50: 24.8 ± 2.71 nM
VEGFR-1
  IC50: 870 nM
Recombinant human TOP1
  TOP1 inhibitory activity (semiquantitative score relative to 1 µM CPT): 0
[3]
  GI% HCT-116: 91.37%
  IC50: 2960 ± 120 nM
FAK
  IC50: 15.4 ± 0.98 nM
FRK
  IC50: 632 nM
[4]
  GI% MDMBA-231: 82.58%
[5]
  total percentage of AV positive apoptotic DLD-1 cells: 80.66%
[6]
  GI% DLD1: 94.18%
  IC50: 2090 ± 140 nM
  fold superior activity compared to Gefitinib, DLD-1: 4 fold
c-Src
  IC50: 92.1 nM
IGF-1R
  IC50: 3530 nM
BTK
  IC50: 23.5 nM
HER-2
  IC50: 251 nM
